Assay results from PubChem BioAssay AID720587 (Broad Institute, 2013).

What follows are compounds tested on A673 Ewing sarcoma viability, CellTiter-Glo ATP luminescence, 72 h (assay: EWS/Fli1-dependent A673 cell killing, confirmation, CellTiter-Glo luminescence, cherry-pick retest (AID 720587)).
With `COc1ccc(CCCNC(=O)C2Cc3c(-c4ccc5c(c4)OCO5)ccnc3O2)cc1` (stereo not drawn) the AC35 was 15.8 µM.
With `COc1ccc(OC)c(/C=C/c2ccnc3ccccc23)c1` the AC35 was 1.7 µM.
For `Cc1ccc(S(=O)(=O)Nc2ccc3c(c2)C(=O)N([C@H](C)CO)C[C@H](C)[C@@H](CN(C)Cc2ccc(C(F)(F)F)cc2)OCCCC[C@H](C)O3)cc1`, the AC35 was 12.8 µM.
With `O=C1/C(=C\c2ccccc2)CN(C(=O)CCN2CCCCC2)C/C1=C/c1ccccc1` the AC35 was 0.734 µM.
Work on `C[C@@H]1CN([C@@H](C)CO)C(=O)c2cc(NS(=O)(=O)c3ccc(F)cc3)ccc2O[C@@H]1CN(C)Cc1ccc(C(=O)Nc2ccccc2N)cc1` yielded an AC35 of 11.3 µM.
With `COc1cc(-c2noc(C)c2C#Cc2nccn2C)cc(OC)c1OC` the AC35 was 15.9 µM.
In the case of `C[C@H](CO)N1C[C@H](C)[C@H](CN(C)CC2CCCCC2)Oc2ccc(NC(=O)Nc3cccc4ccccc34)cc2C1=O`, the AC35 is reported as 18.7 µM.
In the case of `CCc1ccc(/C=C2\SC(=S)N(CCCC(=O)N3CCN(C)CC3)C2=O)cc1`, the AC35 is reported as 13.1 µM.
For `CC(=NNc1cc(C)c2ccccc2n1)c1ccccn1`, the AC35 was 0.417 µM.
In the case of `CCOc1ccc(OCc2ccc(C(=O)NN=Cc3ccc[nH]3)cc2)cc1`, the AC35 is reported as 0.667 µM.
In the case of `COC(=O)C[C@@H]1CC[C@H]2[C@H](COc3ccc(NC(=O)Nc4ccc(C#N)cc4)cc3C(=O)N2C)O1`, the AC35 is reported as 11.3 µM.
`C[C@@H]1CN([C@@H](C)CO)C(=O)c2cc(N(C)C)ccc2O[C@H]1CN(C)Cc1ccc(C(=O)Nc2ccccc2N)cc1` gave an AC35 of 13.2 µM.
For `CC(=O)OC1CC(OC2C(O)CC(OC3C(O)CC(OC4CCC5(C)C(CCC6C5CC(O)C5(C)C(C7=CC(=O)OC7)CCC65O)C4)OC3C)OC2C)OC(C)C1OC1OC(CO)C(O)C(O)C1O` (stereo not drawn), the AC35 was 0.244 µM.
`COC(=O)[C@H]1[C@H](CO)[C@H]2Cn3c(ccc(-c4ccccc4F)c3=O)[C@@H]1N2CC1CCCC1` was tested, and the AC35 was 17.4 µM.
For `CC(C)N1C/C(=C/c2ccsc2)C(=O)/C(=C/c2ccsc2)C1`, the AC35 was 5.27 µM.
`Cc1ccc2c(=O)n3c(nc2c1)C(Cc1ccc(O)cc1)NC(=O)c1cc2ccccc2cc1-3` (stereo not drawn) gave an AC35 of 7.13 µM.
`C[C@@H]1CN([C@H](C)CO)C(=O)c2cc(N(C)C)ccc2O[C@H]1CN(C)Cc1ccc(C(=O)Nc2ccccc2N)cc1` gave an AC35 of 16.7 µM.
Compound `NC1=CC(=O)C(=O)c2cccnc21` has an AC35 of 11.1 µM.
`c1ccc(Nc2nnc(-c3ccc4c(c3)OCO4)o2)cc1` was tested, and the AC35 was 11.9 µM.
`O=C(N/N=C/c1cccs1)c1n[nH]c2c1CCCC2` showed an AC35 of 17.7 µM.
For `O=C(Nc1ccc(F)cc1)N1CCCCN2[C@@H](CO)[C@H](c3ccc(C4=CCCCC4)cc3)[C@@H]2C1`, the AC35 was 10.2 µM.
Work on `CC(C)(C)C(=O)Cn1ncc(Cl)c(Cl)c1=O` yielded an AC35 of 2.73 µM.
Work on `COC(=O)C[C@@H]1CC[C@@H]2[C@H](COc3ccc(NC(=O)c4ccc(C(F)(F)F)cc4)cc3C(=O)N2C)O1` yielded an AC35 of 10.5 µM.
`COc1ccc(C=C2CCc3ccccc3C2=O)cc1` was tested, and the AC35 was 18.9 µM.
Compound `CC(C)(C)[S@](=O)N1Cc2cc(C(=O)NCC(F)(F)F)nc(-c3cccc(-c4cccc(F)c4)c3)c2[C@@H]1CCO` has an AC35 of 14.3 µM.
`Cc1ccc(S(=O)(=O)Nc2ccc3c(c2)C(=O)N([C@@H](C)CO)C[C@H](C)[C@@H](CN(C)Cc2ccc(C(F)(F)F)cc2)OCCCC[C@@H](C)O3)cc1` gave an AC35 of 13.8 µM.
`CC(=O)OC1CC(OC2C(O)CC(OC3C(O)CC(OC4CCC5(C)C(CCC6C5CCC5(C)C(C7=CC(=O)OC7)C(O)CC65O)C4)OC3C)OC2C)OC(C)C1OC1OC(CO)C(O)C(O)C1O` (stereo not drawn) was tested, and the AC35 was 1.26 µM.
With `CN(C[C@H]1N[C@@H](CO)[C@@H]1c1ccc(C2=CCCC2)cc1)C(=O)c1cccc(F)c1` the AC35 was 1.83 µM.
In the case of `C=C1C(=O)C=C[C@]2(C)C[C@@H]3OC(=O)[C@](C)(O)[C@H]3C[C@@H]12`, the AC35 is reported as 4.67 µM.
`COc1ccc(-c2ccc3c(c2)[C@H]2[C@H](CCN2S(=O)(=O)c2ccc(OC)cc2)[C@@H](CO)N3C)cc1` gave an AC35 of 6.76 µM.
Work on `COC(=O)c1ccccc1-c1c2ccc(=N)cc-2oc2cc(N)ccc12` yielded an AC35 of 3.64 µM.
For `COc1cc2c(cc1OC)C(C)N(C(=O)c1cc(Cl)nc(Cl)c1)CC2` (stereo not drawn), the AC35 was 12.1 µM.
`O=C1c2ccc3c4c(ccc(c24)C(=O)N1c1cccc(O)c1)C(=O)N(c1cccc(O)c1)C3=O` gave an AC35 of 2.47 µM.
With `C(=Cc1cnc2ccccc2n1)c1ccc2c(c1)OCO2` the AC35 was 8.73 µM.
For `COc1cccc(-c2cccc(-c3nc(C(=O)NCC(F)(F)F)cc4c3[C@H](CCO)N([S@@](=O)C(C)(C)C)C4)c2)c1`, the AC35 was 8.4 µM.
In the case of `C[C@H]1CN([C@@H](C)CO)C(=O)Cc2cc(NC(=O)C3CC3)ccc2O[C@H]1CN(C)S(=O)(=O)c1ccc(Cl)cc1`, the AC35 is reported as 15.6 µM.
Work on `CC(C)c1ccc(OCc2cccc(C(=O)N/N=C/c3cccnc3)c2)cc1` yielded an AC35 of 19.4 µM.
In the case of `N#CC(=C1C=CC(=NO)C(Cl)=C1)c1ccccc1`, the AC35 is reported as 5.59 µM.
`CCN(CC)c1ccc(C2NC(=O)c3ccccc3N2)cc1` (stereo not drawn) was tested, and the AC35 was 21.6 µM.
`O=c1[nH]c(=O)n(C2C[C@H](O)[C@@H](CO)O2)cc1C(F)(F)F` (stereo partly drawn) showed an AC35 of 3.17 µM.
`Cc1ccc(C(C(=O)NCc2ccco2)N(C(=O)CNC(=O)c2cccs2)c2c(C)cc(C)cc2C)cc1` (stereo not drawn) was tested, and the AC35 was 14.6 µM.
With `C[C@@H]1CN([C@H](C)CO)C(=O)Cc2cc(N(C)C)ccc2O[C@H]1CN(C)Cc1ccc(C(=O)Nc2ccccc2N)cc1` the AC35 was 12.7 µM.
With `COc1ccc(C(CCNCc2ccc(OC(C)C)cc2)C(C)C)cc1` (stereo not drawn) the AC35 was 12.6 µM.
`CN=c1scc(-c2cccs2)n1/N=C/c1ccccc1O` showed an AC35 of 16.9 µM.
`CN(C)c1ccc(-c2ccnc3c2CC(C)(C(=O)NCc2ccco2)O3)cc1` (stereo not drawn) gave an AC35 of 7.77 µM.
Work on `N#CC1=C(N)Oc2cc(N)ccc2C1c1cccc(Br)c1` (stereo not drawn) yielded an AC35 of 0.505 µM.
Compound `C[C@]12CC[C@H](O)C[C@H]1CC[C@@H]1[C@@H]2C[C@@H](O)[C@]2(C)[C@@H](C3=CC(=O)OC3)CC[C@]12O` has an AC35 of 1.1 µM.
`CCC1=Nc2cc(C(=O)NCC3CCCO3)ccc2Sc2ccc(Br)cc21` (stereo not drawn) was tested, and the AC35 was 4.39 µM.
Compound `CCOc1cc2[nH]c(=S)n(Cc3ccc(C(=O)N4CCN(C)CC4)cc3)c(=O)c2cc1OCC` has an AC35 of 19.9 µM.
`CC12CCC(O)CC1CCC1C2CCC2(C)C(C3=CC(=O)OC3)CCC12O` (stereo not drawn) showed an AC35 of 0.385 µM.
`O=c1cc(-c2ccccc2)oc2ccc3ccccc3c12` showed an AC35 of 5.83 µM.
Compound `C[C@H]1CN([C@@H](C)CO)S(=O)(=O)c2ccc(C#Cc3ccncc3)cc2O[C@@H]1CN(C)C(=O)Nc1ccc2c(c1)OCO2` has an AC35 of 0.64 µM.
`CCc1ccc(/C=C2\SC(=S)N(CCCC(=O)NCCCN3CCOCC3)C2=O)cc1` showed an AC35 of 18.7 µM.
In the case of `C[C@@H]1CN([C@H](C)CO)C(=O)c2cc(NC(=O)c3ccccc3)ccc2O[C@@H](C)CCCCO[C@H]1CN(C)C(=O)Nc1cccc2ccccc12`, the AC35 is reported as 2.17 µM.
`C[C@H]1CN([C@@H](C)CO)C(=O)Cc2cc(NC(=O)CCCCCC(=O)Nc3ccccc3N)ccc2O[C@H]1CN(C)Cc1ccc(C(F)(F)F)cc1` gave an AC35 of 12.5 µM.
Work on `C[C@@H]1CCCCO[C@H](CN(C)Cc2ccc(C(=O)Nc3ccccc3N)cc2)[C@@H](C)CN([C@H](C)CO)C(=O)c2cc(NS(=O)(=O)c3ccc(Cl)cc3)ccc2O1` yielded an AC35 of 14.3 µM.
In the case of `CN(C)c1ccc2c(c1)[C@@H]1C[C@@H](CC(=O)NCc3ccc(Oc4ccccc4)cc3)O[C@H](CO)[C@@H]1O2`, the AC35 is reported as 12.8 µM.
For `C[C@@H]1CN([C@@H](C)CO)C(=O)c2cc(NC(=O)c3ccccc3)ccc2O[C@@H](C)CCCCO[C@H]1CN(C)C(=O)Nc1cccc2ccccc12`, the AC35 was 0.62 µM.
`CN(CCO)c1ccc(/C=N/Nc2nncc3ccccc23)cc1` showed an AC35 of 19.9 µM.
In the case of `Cc1ccc(S(=O)(=O)N(C)C[C@@H]2Oc3ccc(NC(=O)CCCCCC(=O)Nc4ccccc4N)cc3CC(=O)N([C@@H](C)CO)C[C@@H]2C)cc1`, the AC35 is reported as 15.3 µM.
For `Oc1cccc(-c2nnc(-c3cccc(O)c3)nn2)c1`, the AC35 was 11.9 µM.
`COc1cccc(-c2cc(NC=O)c3ncc(-c4ccc(C(C)=O)cc4)n3c2)c1` showed an AC35 of 4.09 µM.
`O=c1ccc2ccccc2c2ccccc12` was tested, and the AC35 was 6.04 µM.
Compound `C[C@H](CO)N1C[C@H](C)[C@H](CN(C)CC2CCCCC2)Oc2ccc(NC(=O)CCCCCC(=O)Nc3ccccc3N)cc2CC1=O` has an AC35 of 10.5 µM.
Compound `C=C1C(=O)OC2C1CCC(C)C1(O)C=CC(=O)C21C` (stereo not drawn) has an AC35 of 6.43 µM.
Work on `Oc1[nH]c2ccc(Br)cc2c1N=NC(=S)N1CCOCC1` yielded an AC35 of 0.236 µM.
`C[C@H]1CN([C@@H](C)CO)C(=O)c2cccc(NC(=O)c3ccc(-c4nccs4)cc3)c2O[C@@H]1CN(C)Cc1ccc(C(=O)Nc2ccccc2N)cc1` was tested, and the AC35 was 18.1 µM.
With `Cc1cc(C)cc(C(=O)NC(=S)Nc2ccc(Cc3ccncc3)cc2)c1` the AC35 was 14.2 µM.
`C(=Cc1c[nH]c2ccccc12)c1ccc2ccccc2n1` gave an AC35 of 1.16 µM.
With `O=C(CCc1ccccc1)NC(c1cccs1)c1cc(Cl)c2cccnc2c1O` (stereo not drawn) the AC35 was 0.694 µM.
Work on `Nc1nc(=S)c2[nH]cnc2[nH]1` yielded an AC35 of 0.814 µM.
In the case of `COc1ccc(S(=O)(=O)N2CC[C@@H]3[C@H](CO)Nc4ccc(-c5ccc(C#N)cc5)cc4[C@@H]32)cc1`, the AC35 is reported as 4.23 µM.
In the case of `Brc1ccc(CSc2nnc(-c3ccco3)o2)cc1`, the AC35 is reported as 6.49 µM.
In the case of `COc1cccc(OC)c1C(=O)Nc1cc(C)nn1-c1nc2ccccc2[nH]1`, the AC35 is reported as 13.2 µM.
For `C[C@H](CO)N1C[C@H](C)[C@@H](CN(C)Cc2ccc(Oc3ccccc3)cc2)Oc2ccc(NS(=O)(=O)c3ccc(Cl)cc3)cc2CC1=O`, the AC35 was 16.2 µM.
`C[C@@H]1CN([C@H](C)CO)C(=O)Cc2cc(NC(=O)CCCCCC(=O)Nc3ccccc3N)ccc2O[C@@H]1CN(C)CC1CCCCC1` was tested, and the AC35 was 13.4 µM.
In the case of `Cc1ccc(/C=C2\SC(=S)N(CCCC(=O)NNC(=O)c3ccccc3O)C2=O)cc1`, the AC35 is reported as 11.3 µM.
In the case of `COc1ccc(S(=O)(=O)Nc2ccc3c(c2)C(=O)N([C@H](C)CO)C[C@@H](C)[C@@H](CN(C)CC2CCCCC2)OCCCC[C@H](C)O3)cc1`, the AC35 is reported as 12.3 µM.
Compound `COc1ccc(S(=O)(=O)Nc2ccc3c(c2)C(=O)N([C@H](C)CO)C[C@@H](C)[C@@H](CN(C)Cc2ccc(C(=O)Nc4ccccc4N)cc2)O3)cc1` has an AC35 of 12.5 µM.
Work on `Cc1cccc(NC(=O)CN2CCN(C(=O)CNC(=O)c3ccc(-c4ccccc4)cc3)CC2)c1C` yielded an AC35 of 12.8 µM.
`COC(=O)C[C@H]1C=C[C@@H](NC(=O)Nc2ccc(C(F)(F)F)cc2)[C@H](CO)O1` was tested, and the AC35 was 21.6 µM.
In the case of `O=C1NC2C(=CC(O)C(O)C2O)c2cc3c(cc21)OCO3` (stereo not drawn), the AC35 is reported as 0.837 µM.
`C[C@]12CC[C@H](O)C[C@H]1CC[C@@H]1C2CC[C@]2(C)[C@@H](C3=CC(=O)OC3)[C@@H](O)C[C@]12O` (stereo partly drawn) gave an AC35 of 5.27 µM.
`Cc1ccc(S(=O)(=O)Nc2ccc3c(c2)C(=O)N([C@H](C)CO)C[C@@H](C)[C@@H](CN(C)Cc2ccc(C(=O)Nc4ccccc4N)cc2)O3)cc1` was tested, and the AC35 was 11.9 µM.
Work on `COc1ccc(-c2cnc3c(NC=O)cc(-c4ccccc4OC)cn23)cc1OC` yielded an AC35 of 0.101 µM.
`COc1cccc(Sc2ccccc2/C=N/NC(N)=O)c1` gave an AC35 of 2.23 µM.
`COC(=O)C[C@@H]1CC[C@@H]2[C@H](COc3ccc(NC(=O)c4ccc(F)c(F)c4)cc3C(=O)N2C)O1` was tested, and the AC35 was 19.7 µM.
For `CCc1cccc2c(C(=O)CN3C(=O)NC4(CCCCC4)C3=O)c[nH]c12`, the AC35 was 8.95 µM.
